Laboratory results taken from patent US10710980B2, “Aminopyridine derivatives and their use as selective ALK-2 inhibitors” (priority 2016, dated 2020).
Like-named read-outs stand apart in the source and are kept apart here.

How the values were obtained:
[1] = target: ALK1 (aa166-493) (Homo sapiens (Human), UniProt P37023); experiment: Caliper biochemical peptide phosphorylation assay, ALK1; conditions: 15 μm ATP, 60 min at 30° C.; read-out: ALK1 EPK (IC50)
[2] = target: ALK6 (aa168-495) (Homo sapiens (Human), UniProt O00238); experiment: Caliper biochemical peptide phosphorylation assay, ALK6; conditions: 15 μm ATP, 60 min at 30° C.; read-out: ALK6 EPK (IC50)
Sequence of ALK6 (aa168-495) (O00238 168-495): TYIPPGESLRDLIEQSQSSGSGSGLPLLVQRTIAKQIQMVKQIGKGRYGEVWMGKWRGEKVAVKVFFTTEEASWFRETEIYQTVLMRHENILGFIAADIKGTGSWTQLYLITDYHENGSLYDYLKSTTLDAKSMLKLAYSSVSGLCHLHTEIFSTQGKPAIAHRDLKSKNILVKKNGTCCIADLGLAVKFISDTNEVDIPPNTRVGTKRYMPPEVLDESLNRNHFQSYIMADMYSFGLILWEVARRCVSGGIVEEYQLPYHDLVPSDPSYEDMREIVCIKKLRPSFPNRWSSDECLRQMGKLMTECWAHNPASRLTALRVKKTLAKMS

[3] = test system: BMP response element (BRE) luciferase reporter in HuH7 cells, BMP6 stimulated; experiment: BMP signaling reporter gene assay; type: cell-based; conditions: Homo sapiens, read-out: MSD BMP RGA IC50
[4] = target: T1, wild-type ALK2 (aa172-499) (Homo sapiens (Human), UniProt Q04771); experiment: Caliper biochemical peptide phosphorylation assay, ALK2; conditions: 15 μm ATP, 60 min at 30° C.; read-out: ALK2 EPK (IC50)
T1 sequence (Q04771 172-499): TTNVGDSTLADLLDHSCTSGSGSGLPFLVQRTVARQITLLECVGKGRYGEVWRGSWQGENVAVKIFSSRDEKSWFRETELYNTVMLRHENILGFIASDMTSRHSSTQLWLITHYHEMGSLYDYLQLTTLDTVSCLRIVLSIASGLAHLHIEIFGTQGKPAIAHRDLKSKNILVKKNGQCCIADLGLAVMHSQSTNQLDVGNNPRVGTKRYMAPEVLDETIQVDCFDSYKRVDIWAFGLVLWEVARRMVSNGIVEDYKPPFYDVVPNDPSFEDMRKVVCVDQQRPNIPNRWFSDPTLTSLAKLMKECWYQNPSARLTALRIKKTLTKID

[5] = target: ALK5 (aa162-503) (Homo sapiens (Human), UniProt P36897); experiment: Caliper biochemical peptide phosphorylation assay, ALK5; conditions: 15 μm ATP, 60 min at 30° C.; read-out: ALK5 EPK (IC50)
Sequence of ALK5 (aa162-503) (P36897 162-503): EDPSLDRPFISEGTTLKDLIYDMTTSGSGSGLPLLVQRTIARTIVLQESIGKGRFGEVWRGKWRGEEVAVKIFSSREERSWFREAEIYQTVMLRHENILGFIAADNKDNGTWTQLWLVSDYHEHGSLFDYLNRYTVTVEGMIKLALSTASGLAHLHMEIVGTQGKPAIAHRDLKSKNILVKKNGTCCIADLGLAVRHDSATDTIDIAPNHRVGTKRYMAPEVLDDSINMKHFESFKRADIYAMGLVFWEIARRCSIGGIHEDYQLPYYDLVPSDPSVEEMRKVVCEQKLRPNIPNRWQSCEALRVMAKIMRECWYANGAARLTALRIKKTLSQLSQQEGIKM

[6] = target: ALK3 (aa198-525) (Homo sapiens (Human), UniProt P36894); experiment: ADPGlo biochemical autophosphorylation assay, ALK3; conditions: 15 μm ATP, 60 min at 32° C.
Sequence of ALK3 (aa198-525) (P36894 198-525): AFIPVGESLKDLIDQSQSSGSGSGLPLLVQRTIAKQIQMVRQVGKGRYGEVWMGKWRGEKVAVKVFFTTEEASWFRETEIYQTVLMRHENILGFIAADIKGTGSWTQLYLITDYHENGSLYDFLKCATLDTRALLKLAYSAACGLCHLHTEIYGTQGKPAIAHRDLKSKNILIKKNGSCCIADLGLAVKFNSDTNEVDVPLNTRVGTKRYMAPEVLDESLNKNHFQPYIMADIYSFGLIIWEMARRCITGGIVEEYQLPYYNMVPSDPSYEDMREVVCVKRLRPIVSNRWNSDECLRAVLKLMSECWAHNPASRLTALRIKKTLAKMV

[7] = target: T1, wild-type ALK2 (aa172-499); experiment: ADPGlo biochemical autophosphorylation assay, ALK2; conditions: 15 μm ATP, 60 min at 32° C.
[8] = Huh-7, HuH7 BRE-luciferase, BMP6 100 ng/ml, 5 hours

Sequence of ALK1 (aa166-493) (P37023 166-493): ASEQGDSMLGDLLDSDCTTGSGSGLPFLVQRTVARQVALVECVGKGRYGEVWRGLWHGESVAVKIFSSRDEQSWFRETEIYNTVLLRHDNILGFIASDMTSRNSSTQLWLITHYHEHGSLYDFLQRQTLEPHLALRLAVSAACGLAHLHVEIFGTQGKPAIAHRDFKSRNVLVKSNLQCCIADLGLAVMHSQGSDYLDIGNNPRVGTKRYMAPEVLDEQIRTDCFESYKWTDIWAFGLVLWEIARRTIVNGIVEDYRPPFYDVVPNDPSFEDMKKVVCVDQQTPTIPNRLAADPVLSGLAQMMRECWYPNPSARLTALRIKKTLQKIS

Row | IC50 [1] [nM] | IC50 [2] [nM] | IC50 [3, 8] [nM] | IC50 [4] [nM] | IC50 [5] [nM] | IC50 [6] [nM] | IC50 [7] [nM] | SMILES | IC50 ([3]; Huh-7, 5 h) [nM]
1 | 240 | 5000 | 79 | 15 | 9900 | 1400 | 12 | CC(C)N1C[C@@H]2C[C@]2(c2ccc(-c3cnc(N)c(C(=O)NC45CC(CO)(C4)C5)c3)cc2)C1 [Example 16, 2-amino-N-(3-(hydroxymethyl)bicyclo[1.1.1]pentan-1-yl)-5-(4-((1S,5R)-3-isopropyl-3-azabicyclo[3.1.0]hexan-1-yl)phenyl)nicotinamide] | –
2 | 110 | 2400 | 150 | 14 | 1600 | 2000 | 12 | Nc1ncc(-c2ccc([C@]34C[C@H]3CN(CCC(F)(F)F)C4)cc2)cc1C(=O)N[C@H]1CC[C@H](O)CC1 [Example 17, 2-amino-N-((1r,4S)-4-hydroxycyclohexyl)-5-(4-((1S,5R)-3-(3,3,3-trifluoropropyl)-3-azabicyclo[3.1.0]hexan-1-yl)phenyl)nicotinamide] | –
3 | 130 | 3950 | 40 | 17 | 3800 | 1350 | 7 | COCCN1C[C@@H]2C[C@]2(c2ccc(-c3cnc(N)c(C(=O)N[C@H]4CC[C@H](O)CC4)c3)cc2)C1 [Example 20, 2-amino-N-((1r,4S)-4-hydroxycyclohexyl)-5-(4-((1S,5R)-3-(2-methoxyethyl)-3-azabicyclo[3.1.0]hexan-1-yl)phenyl)nicotinamide] | –
4 | 543 | 7300 | 81 | 16 | 6800 | 6480 | 11 | CC(C)N1C[C@H]2C[C@@]2(c2ccc(-c3cnc(N)c(C(=O)N[C@H]4CC[C@](C)(O)CC4)c3)cc2)C1 [Example 24, 2-amino-N-((1r,4R)-4-hydroxy-4-methylcyclohexyl)-5-(4-((1R,5S)-3-isopropyl-3-azabicyclo[3.1.0]hexan-1-yl)phenyl)nicotinamide] | –
5 | 230 | 2500 | 110 | 18 | 4300 | 1700 | 18 | Nc1ncc(-c2ccc([C@]34C[C@H]3CN(C3COC3)C4)cc2)cc1C(=O)N[C@H]1CC[C@H](O)CC1 [Example 26, 2-amino-N-((1r,4S)-4-hydroxycyclohexyl)-5-(4-((1S,5R)-3-(oxetan-3-yl)-3-azabicyclo[3.1.0]hexan-1-yl)phenyl)nicotinamide] | –
6 | 250 | 3300 | 17 | 18 | 9400 | 530 | 11 | Nc1ncc(-c2ccc([C@]34C[C@H]3CN(C3CCOCC3)C4)cc2)cc1C(=O)NC12CC(CO)(C1)C2 [Example 28, 2-amino-N-(3-(hydroxymethyl)bicyclo[1.1.1]pentan-1-yl)-5-(4-((1S,5R)-3-(tetrahydro-2H-pyran-4-yl)-3-azabicyclo[3.1.0]hexan-1-yl)phenyl)nicotinamide] | –
7 | 280 | 4000 | 685 | 20 | 4000 | 2500 | 22 | Nc1ncc(-c2ccc(N3CCNCC3)cc2F)cc1C(=O)N[C@H]1CC[C@H](O)CC1 [Example 29, 2-amino-5-(2-fluoro-4-(piperazin-1-yl)phenyl)-N-((1r,4r)-4-hydroxycyclohexyl)nicotinamide] | –
8 | 210 | 2800 | 68 | 22 | 4000 | 500 | 7 | Nc1ncc(-c2ccc([C@@]34C[C@@H]3CN(C3CCOCC3)C4)cc2)cc1C(=O)NC12CC(CO)(C1)C2 [Example 30, 2-amino-N-(3-(hydroxymethyl)bicyclo[1.1.1]pentan-1-yl)-5-(4-((1R,5S)-3-(tetrahydro-2H-pyran-4-yl)-3-azabicyclo[3.1.0]hexan-1-yl)phenyl)nicotinamide] | –
9 | 230 | 4500 | 115 | 20 | 3500 | 1200 | 13 | C[C@@H]1CCCN1Cc1ccc(-c2cnc(N)c(C(=O)N[C@H]3CC[C@H](O)CC3)c2)cc1 [Example 31, 2-amino-N-((1r,4R)-4-hydroxycyclohexyl)-5-(4-(((R)-2-methylpyrrolidin-1-yl)methyl)phenyl)nicotinamide] | –
10 | 743 | 3300 | 93 | 20 | 3200 | 12700 | 22 | CC(C)N1C[C@@H]2C[C@]2(c2ccc(-c3cnc(N)c(C(=O)N[C@H]4CC[C@](C)(O)CC4)c3)cc2)C1 [Example 32, 2-amino-N-((1r,4S)-4-hydroxy-4-methylcyclohexyl)-5-(4-((1S,5R)-3-isopropyl-3-azabicyclo[3.1.0]hexan-1-yl)phenyl)nicotinamide] | –
11 | 323 | 3300 | 49 | 23 | 6280 | 914 | 18 | Nc1ncc(-c2ccc([C@@]34C[C@@H]3CN(C3CCOCC3)C4)cc2)cc1C(=O)NC12CCC(O)(CC1)CC2 [Example 34, 2-amino-N-(4-hydroxybicyclo[2.2.2]octan-1-yl)-5-(4-((1R,5S)-3-(tetrahydro-2H-pyran-4-yl)-3-azabicyclo[3.1.0]hexan-1-yl)phenyl)nicotinamide] | –
12 | 283 | 4500 | 73 | 21 | 5720 | 903 | 17 | Nc1ncc(-c2ccc([C@]34C[C@H]3CN(C3CCC(F)(F)CC3)C4)cc2)cc1C(=O)NC12CCC(O)(CC1)CC2 [Example 35, 2-amino-5-(4-((1S,5R)-3-(4,4-difluorocyclohexyl)-3-azabicyclo[3.1.0]hexan-1-yl)phenyl)-N-(4-hydroxybicyclo[2.2.2]octan-1-yl)nicotinamide] | –

Row | SMILES | IC50 [1] [nM] | IC50 [2] [nM] | IC50 [3, 8] [nM] | IC50 [4] [nM] | IC50 [5] [nM] | IC50 [6] [nM] | IC50 [7] [nM] | IC50 ([3]; Huh-7, 5 h) [nM]
13 | Nc1ncc(-c2ccc([C@@]34C[C@@H]3CN(C3CCOCC3)C4)cc2)cc1C(=O)N[C@@H]1CC[C@@H](O)[C@@H](F)C1 [Example 21, 2-amino-N-((1R,3S,4R)-3-fluoro-4-hydroxycyclohexyl)-5-(4-((1R,5S)-3-(tetrahydro-2H-pyran-4-yl)-3-azabicyclo[3.1.0]hexan-1-yl)phenyl)nicotinamide] | 55 | 1000 | 35 | 19 | 900 | 260 | 6 | –
14 | Nc1ncc(-c2ccc(CN3CC4(CCC4)C3)cc2)cc1C(=O)N[C@H]1CC[C@H](O)CC1 [Example 23, 5-(4-(2-azaspiro[3.3]heptan-2-ylmethyl)phenyl)-2-amino-N-((1r,4r)-4-hydroxycyclohexyl)nicotinamide] | 250 | 2400 | – | 18 | 2700 | 1600 | 9 | 23
